# Source: a polymer gas permeability compilation
Structure (SMILES),CH4 permeability,CO2 permeability,H2 permeability,N2 permeability,O2 permeability
*CC(*)C(=O)OCCCCCCCCCCCCCC (repeat unit),65.1 Barrer,297 Barrer,96.2 Barrer,22.1 Barrer,57.1 Barrer
*C(=C(*)c1cccc(O)c1)c1ccc(C(C)(C)C)cc1 (repeat unit),490 Barrer,3000 Barrer,1700 Barrer,210 Barrer,580 Barrer
*C/C=C(/C)C* (repeat unit),29.6 Barrer,153 Barrer,49 Barrer,8.75 Barrer,23.3 Barrer
*C(=C(*)c1ccc2c(c1)C(C)(C)CC2(C)C)c1ccccc1 (repeat unit),29100 Barrer,38700 Barrer,24800 Barrer,11600 Barrer,14400 Barrer
*Cc1ccc(C*)c(C#N)c1 (repeat unit),–,0.301 Barrer,1.78 Barrer,–,0.0904 Barrer
*CC(*)C(=O)OCC(F)(F)C(F)(F)C(F)(F)C(F)(F)C(F)(F)C(F)(F)C(F)(F)F (repeat unit),57 Barrer,520 Barrer,300 Barrer,54 Barrer,135 Barrer
*Oc1c(C)cc(*)c(C(=O)c2ccc(Br)cc2)c1C (repeat unit),1.13 Barrer,18 Barrer,–,2.13 Barrer,8.45 Barrer
*Oc1cc2c(cc1O*)C1(CC2(C)C)CC(C)(C)c2cc3c(cc21)Oc1c(C#N)c(*)c(*)c(C(=O)O)c1O3 (repeat unit),–,2540 Barrer,1540 Barrer,162 Barrer,534 Barrer
*C(C(=O)OC(C)C)C(*)C(=O)OC(C)CC(C)C (repeat unit),–,–,156 Barrer,14 Barrer,45 Barrer
*/C=C/c1ccc(*)cc1[Si](CC)(CC)CC (repeat unit),–,24 Barrer,–,1.8 Barrer,6.6 Barrer
*C(C)=C(*)CCCCCCC (repeat unit),83.5 Barrer,290 Barrer,145 Barrer,29 Barrer,72.5 Barrer
*C(=C(*)c1ccc([Si](C)(C)CCCCCCCC)cc1)c1ccccc1 (repeat unit),–,170 Barrer,–,11 Barrer,34 Barrer
*C/C=C\C* (repeat unit),–,138 Barrer,41.9 Barrer,15.8 Barrer,19 Barrer
*Nc1ccc(*)cc1OCC (repeat unit),–,2.22 Barrer,8.1 Barrer,0.107 Barrer,0.62 Barrer
*CC(C)O* (repeat unit),34 Barrer,190 Barrer,42 Barrer,11 Barrer,28 Barrer
*OC1OC(COC(=O)NC(C)(C)C)C(*)C(OC(C)=O)C1OC(C)=O (repeat unit),1.4 Barrer,28.5 Barrer,31 Barrer,0.98 Barrer,4.3 Barrer
*C[Si](*)(C)C (repeat unit),130 Barrer,549 Barrer,–,38 Barrer,99 Barrer
*CC(*)CC(C)C (repeat unit),–,92.6 Barrer,–,–,32.3 Barrer

# The next lines start with the values.
CH4 permeability,CO2 permeability,H2 permeability,N2 permeability,O2 permeability,Structure (SMILES)
–,–,5.43 Barrer,0.027 Barrer,0.246 Barrer,*c1ccc(Cc2ccc(N3C(=O)c4ccc(Sc5ccc6c(c5)C(=O)N(*)C6=O)cc4C3=O)cc2)cc1 (repeat unit)
0.0258 Barrer,1.15 Barrer,5.92 Barrer,0.0454 Barrer,0.31 Barrer,*c1ccc(Oc2cccc(-n3c(=O)c4cc5c(=O)n(*)c(=O)c5cc4c3=O)c2)cc1 (repeat unit)
0.577 Barrer,15 Barrer,34.5 Barrer,0.611 Barrer,3.3 Barrer,*Oc1ccc(S(=O)(=O)c2ccc(Oc3c(C)cc(Cc4cc(C)c(*)c(C)c4)cc3C)cc2)cc1 (repeat unit)
–,–,0.38 Barrer,–,0.006 Barrer,*c1ccc(-c2nc3cc(-c4ccc5[nH]c(*)nc5c4)ccc3[nH]2)c(Br)c1 (repeat unit)
–,–,74.4 Barrer,1.44 Barrer,7.75 Barrer,*c1ccc2c(c1)C(=O)n1c-2nc2ccc(-c3ccc4c(c3)nc3n4C(=O)c4ccc(C(*)(C(F)(F)F)C(F)(F)F)cc4-3)cc21 (repeat unit)
3.2 Barrer,144 Barrer,193 Barrer,5.52 Barrer,26.4 Barrer,*c1c(C)c(C(=O)O)c(C)c(N2C(=O)c3ccc(C(c4ccc5c(c4)C(=O)N(*)C5=O)(C(F)(F)F)C(F)(F)F)cc3C2=O)c1C (repeat unit)
–,–,10.9 Barrer,0.094 Barrer,0.663 Barrer,*c1ccc(-c2ccc(N3C(=O)c4ccc([Si](C)(C)c5ccc6c(c5)C(=O)N(*)C6=O)cc4C3=O)c(C)c2)cc1C (repeat unit)
77 Barrer,1100 Barrer,530 Barrer,47 Barrer,150 Barrer,*c1c(C)c(C)c(-n2c(=O)c3cc4oc5cc6c(cc5oc4cc3c2=O)C2(CC(C)(C)c3cc4oc5cc7c(=O)n(*)c(=O)c7cc5oc4cc32)CC6(C)C)c(C)c1C (repeat unit)
0.344 Barrer,15.2 Barrer,44.7 Barrer,0.686 Barrer,3.88 Barrer,*c1ccc(Cc2ccc(N3C(=O)c4ccc(C(c5ccc6c(c5)C(=O)N(*)C6=O)(C(F)(F)F)C(F)(F)F)cc4C3=O)cc2)cc1 (repeat unit)
1.45 Barrer,43.9 Barrer,–,2.13 Barrer,10.3 Barrer,*c1c(C)cc(Cc2cc(C)c(N3C(=O)c4ccc(C(c5ccc6c(c5)C(=O)N(*)C6=O)(C(F)(F)F)C(F)(F)F)cc4C3=O)c(C)c2)cc1C (repeat unit)
1.21 Barrer,53 Barrer,–,3.35 Barrer,36.1 Barrer,*c1ccc(-c2ccc(Oc3ccc4c(c3)C3(CC4(C)C)CC(C)(C)c4ccc(Oc5ccc(-c6ccc(N7C(=O)c8ccc(C(c9ccc%10c(c9)C(=O)N(*)C%10=O)(C(F)(F)F)C(F)(F)F)cc8C7=O)cc6)cc5C(F)(F)F)cc43)c(C(F)(F)F)c2)cc1 (repeat unit)
0.0846 Barrer,2.8 Barrer,–,0.0938 Barrer,0.596 Barrer,*c1ccc(Oc2ccc(C(C)(C)c3ccc(Oc4ccc(N5C(=O)c6ccc(-c7ccc8c(c7)C(=O)N(*)C8=O)cc6C5=O)cc4)cc3)cc2)cc1 (repeat unit)
0.0018 Barrer,0.16 Barrer,0.615 Barrer,0.0048 Barrer,0.015 Barrer,*c1cccc(-c2nc3cc(-c4ccc5[nH]c(*)nc5c4)ccc3[nH]2)c1 (repeat unit)
0.082 Barrer,4 Barrer,11 Barrer,0.11 Barrer,0.74 Barrer,*c1ccc(Oc2ccc(-n3c(=O)c4cc5sc6cc7c(=O)n(*)c(=O)c7cc6sc5cc4c3=O)cc2)cc1 (repeat unit)
1.61 Barrer,72 Barrer,70.7 Barrer,4 Barrer,18 Barrer,*Oc1ccc(S(=O)(=O)c2ccc(Oc3c(C)cc(C(c4cc(C)c(*)c(C)c4)(C(F)(F)F)C(F)(F)F)cc3C)cc2)cc1 (repeat unit)
1.19 Barrer,33.1 Barrer,–,2.87 Barrer,15.2 Barrer,*c1ccc(Oc2ccc(-c3ccc(-c4ccc(Oc5ccc(N6C(=O)c7ccc(C(c8ccc9c(c8)C(=O)N(*)C9=O)(C(F)(F)F)C(F)(F)F)cc7C6=O)cc5)c(C(F)(F)F)c4)cc3)cc2C(F)(F)F)cc1 (repeat unit)
0.0459 Barrer,1.24 Barrer,7.79 Barrer,0.0628 Barrer,0.4 Barrer,*Oc1ccc(C(C)(C)c2ccc(OC(=O)c3cccc(C(*)=O)c3)c(C)c2)cc1C (repeat unit)
0.01 Barrer,0.264 Barrer,–,0.017 Barrer,0.065 Barrer,*Nc1ccc(Cc2ccc(NC(=O)CN3C(=O)c4ccc(C(*)=O)cc4C3=O)cc2)cc1 (repeat unit)
0.07 Barrer,4.88 Barrer,6.86 Barrer,0.13 Barrer,0.99 Barrer,*c1ccccc1Oc1ccc2ccccc2c1-c1c(Oc2ccccc2N2C(=O)c3ccc(C(c4ccc5c(c4)C(=O)N(*)C5=O)(C(F)(F)F)C(F)(F)F)cc3C2=O)ccc2ccccc12 (repeat unit)
–,6200 Barrer,–,930 Barrer,1710 Barrer,*C(=C(*)c1ccc(C(C)(C)C)cc1)c1ccccc1 (repeat unit)
3 Barrer,72 Barrer,–,4 Barrer,18 Barrer,*Oc1c(C)cc(C(c2cc(C)c(Oc3ccc(S(=O)(=O)c4ccc(*)cc4)cc3)c(C)c2)(C(F)(F)F)C(F)(F)F)cc1C (repeat unit)
0.0086 Barrer,0.428 Barrer,–,0.016 Barrer,0.112 Barrer,*c1cccc(N2C(=O)c3ccc(C(=O)c4ccc5c(c4)C(=O)N(*)C5=O)cc3C2=O)c1 (repeat unit)
582 Barrer,8500 Barrer,4430 Barrer,380 Barrer,1510 Barrer,*Oc1cc2c(cc1O*)C1(c3cc(C)ccc3-2)c2cc(C)ccc2-c2cc3c(cc21)Oc1c(C#N)c(*)c(*)c(C#N)c1O3 (repeat unit)
11000 Barrer,21000 Barrer,11000 Barrer,4700 Barrer,6200 Barrer,*C(=C(*)c1ccc2c(c1)C(C)(C)c1ccccc1-2)c1ccc(F)cc1 (repeat unit)
–,–,5.34 Barrer,0.036 Barrer,0.23 Barrer,*Oc1ccc(Oc2ccc3c(c2)-c2nc4cc(Oc5ccc6nc7n(c6c5)C(=O)c5cc(*)ccc5-7)ccc4n2C3=O)cc1 (repeat unit)
0.08 Barrer,4.7 Barrer,–,0.15 Barrer,1.2 Barrer,*Oc1ccc(C(C)(C)c2ccc(Oc3ccc(S(=O)(=O)c4ccc(*)c5ccccc45)cc3)cc2)cc1 (repeat unit)
